Results published in patent publication US20170007709A1, “GLYCOAMINO ACID AND USE THEREOF” (AJINOMOTO CO., INC., priority 2014, published 2017).

Experiments:
[1] = Solubility evaluation in water at 25° C.; format: physicochemical; settings: for solubility, amino acid-converted weight concentration / solubility, weight concentration: water, stirred for 2 days
Description: The concentration was measured by HPLC. […] Similarly, the solubility of DOPA and DOPA-Glc was measured. […] Furthermore, the solubility of DOPA and DOPA-Glc was similarly measured using water (0.5 ml) in a thermostatic tank at 25° C. […] Therefore, the samples were diluted, and solubility was measured by HPLC.

[2] = Animal evaluation: blood amino acid concentration after oral administration; format: in vivo; settings: male SD rats fasted overnight
Description: Leu, Val, Ile and glycoamino acid corresponding thereto (Leu-Glc, Val-Glc, Ile-Glc) were each dissolved or suspended in distilled water to a given dose and orally administered to male 13-week-old SD rats (Japan Charles River) that was fasted overnight. Blood samples were collected from the rat tail vein before administration and 15 min, 30 min, 60 min, 90 min, 120 min after administration and partly 180 min and 300 min after administration. After separation into plasma, protein elimination and ultrafiltration with 15% sulfosalicylic acid solution was performed. The filtrate was mixed with 0.02 mmol/L hydrochloric acid at 1:1, analyzed by an amino acid analyzer (JEOL Ltd.), and blood amino acid concentration was determined.

[3] = Dissolution rate evaluation in water; format: physicochemical; settings: 25 ml stirring water, inside temperature 32° C., n=1
Description: Val, Ile, Leu or glycoamino acid corresponding thereto (Val-Glc, Ile-Glc, Leu-Glc) were each added to stirring water (25 ml, inside temperature 32° C.) in a hot-water bath at 35° C., and the dissolution rate was measured. As compared to Val, Ile and Leu, Val-Glc, Ile-Glc and Leu-Glc were dissolved 4-19 times faster in equal weight and 2-19 times faster in equimolar amount.

pronase = test: Enzyme evaluation: liberation of leucine by pronase; format: in vitro ADME; settings: 37° C., 30 min later
Description: Leu-Glc (10 mg) was dissolved in water (1 ml), pronase (0.1% aqueous solution, 100 μl) was added, and the mixture was stirred in a hot-water bath at 37° C. The mixture was diluted 10-fold with 1% aqueous phosphoric acid solution, and analyzed by HPLC.
HPLC analysis conditions were as described below.
column: […] MG (4.6×250 mm, 5 μm) column temperature: 40° C. mobile phase: A: 100 mM KH2PO4, 5 mM sodium 1-octanesulfonate (pH 2.2) B: acetonitrile eluent: A/B=9/1 isocratic flow rate: 1.5 ml/min detection: photodiode array detector measurement wavelength 210 nm injection volume: 10 μL

SMILES	solubility, amino acid-converted weight concentration ([1]; HPLC) [g/100 g water]	solubility, weight concentration ([1]; HPLC) [g/100 g water]	dissolution rate, glycoamino acid (XXX-Glc) ([3]; equal weight (Table 3)) [s]	dissolution rate, glycoamino acid (XXX-Glc) ([3]; equimolar quantity (Table 2)) [s]	dissolution rate, amino acid (XXX) ([3]; equal weight (Table 3))	dissolution rate, amino acid (XXX) ([3]; equimolar quantity (Table 2))	also measured
N[C@@H](Cc1ccc(O)c(O)c1)C(=O)N[C@@H]1O[C@H](CO)[C@@H](O)[C@H](O)[C@H]1O [DOPA-Glc, N-(3,4-dihydroxy-L-phenylalanyl)-β-D-glucopyranosylamine]	>215	>392	–	–	–	–	solubility as compared to that of DOPA ([1]; water 0.5 ml, samples diluted, HPLC): not less than 690 fold; solubility as compared to the corresponding amino acid ([1]; water 1 ml): not less than 135 times; weight concentration at which still dissolved ([1]; water 1 ml): ≥ 93.8 g/100 g water
CC[C@H](C)[C@H](N)C(=O)N[C@@H]1O[C@H](CO)[C@@H](O)[C@H](O)[C@H]1O [Ile-Glc, N-(L-isoleucyl)-β-D-glucopyranosylamine]	14.7	32.8	15	15	–	–	blood Ile concentration [2]: increased
CC(C)C[C@H](N)C(=O)O [Leu, L-leucine, reference compound]	2.4	2.4	–	–	(330 sec)	(191 sec)	–
N[C@@H](Cc1ccc(O)c(O)c1)C(=O)O [DOPA, 3,4-dihydroxy-L-phenylalanine, reference compound]	0.31	0.31	–	–	–	–	–
CC(C)[C@H](N)C(=O)O [Val, L-valine, reference compound]	5.8	5.8	–	–	(139 sec)	(80 sec)	–
CC(C)C[C@H](N)C(=O)N[C@@H]1O[C@H](CO)[C@@H](O)[C@H](O)[C@H]1O [Leu-Glc, N-(L-leucyl)-β-D-glucopyranosylamine]	28.3	63	21	21	–	–	blood Leu concentration [2]: increased; remaining Leu-Glc (pronase): almost disappeared
CC[C@H](C)[C@H](N)C(=O)O [Ile, L-isoleucine, reference compound]	4.1	4.1	–	–	(285 sec)	(280 sec)	–
N[C@@H](Cc1ccc(O)cc1)C(=O)N[C@@H]1O[C@H](CO)[C@@H](O)[C@H](O)[C@H]1O [Tyr-Glc, N-(L-tyrosyl)-β-D-glucopyranosylamine]	8.92	16.8	–	–	–	–	solubility as compared to the corresponding amino acid ([1]; water 1 ml): 178 times
CC(C)[C@H](N)C(=O)N[C@@H]1O[C@H](CO)[C@@H](O)[C@H](O)[C@H]1O [Val-Glc, N-(L-valyl)-β-D-glucopyranosylamine]	14.1	33.5	33	33	–	–	blood Val concentration [2]: increased
